Data: article PMC6261661 (ACS chemical neuroscience, 2018)
Where “and” joins values, the source holds several entries; their conditions need not be identical. Equal values may be shown once. Read-outs that look alike come from different tables or passages of the source. Square brackets hold non-standard residues; d marks the D form. Peptide text beside a SMILES is read from it. dPhe(4-I) = N[C@H](Cc1ccc(I)cc1)C(=O)O; 2Nal = N[C@@H](Cc1ccc2ccccc2c1)C(=O)O; 3Pal = N[C@@H](Cc1cccnc1)C(=O)O; 4Pal = N[C@@H](Cc1ccncc1)C(=O)O

Assays:
mMC4R [1] = target: T1, mMC4R (Mus musculus, UniProt P56450); assay: Antagonist Schild analysis against agonist MTII at mMC4R; format: cell-based
mMC1R [2] = target: T2, mMC1R (Mus musculus, UniProt Q01727); assay: CRE/β-galactosidase reporter gene bioassay, agonist activity at mMC1R; format: cell-based
mMC3R [3] = target: T3, mMC3R (Mus musculus, UniProt P33033); assay: Antagonist Schild analysis against agonist MTII at mMC3R; format: cell-based
mMC4R [4] = target: T1, mMC4R; assay: CRE/β-galactosidase reporter gene bioassay, agonist activity at mMC4R; format: cell-based; conditions: ligand at 100 μM, compared to maximal response generated by α-MSH
mMC5R [5] = target: T4, mMC5R (Mus musculus, UniProt P41149); assay: CRE/β-galactosidase reporter gene bioassay, agonist activity at mMC5R; format: cell-based
male and female mice = conditions: central administration, ref [37]; cited from earlier work
mMC3R [6] = target: T3, mMC3R; conditions: cited from earlier work; for EC50: read-out: mMC3R EC50, reference peptide from the literature
mMC5R [7] = target: T4, mMC5R; conditions: read-out: mMC5R EC50, reference peptide from the literature, cited from earlier work
mMC4R [8] = target: T1, mMC4R; conditions: read-out: mMC4R EC50, reference peptide from the literature, cited from earlier work
mMC1R [9] = target: T2, mMC1R; conditions: read-out: mMC1R EC50, reference peptide from the literature, cited from earlier work
[10] = Ant = antagonist, SA = some stimulatory activity at 100 µM
[11] = fold difference in EC50 vs peptide 1, negative prefix = more potent than 1

T2 sequence (Q01727 whole entry): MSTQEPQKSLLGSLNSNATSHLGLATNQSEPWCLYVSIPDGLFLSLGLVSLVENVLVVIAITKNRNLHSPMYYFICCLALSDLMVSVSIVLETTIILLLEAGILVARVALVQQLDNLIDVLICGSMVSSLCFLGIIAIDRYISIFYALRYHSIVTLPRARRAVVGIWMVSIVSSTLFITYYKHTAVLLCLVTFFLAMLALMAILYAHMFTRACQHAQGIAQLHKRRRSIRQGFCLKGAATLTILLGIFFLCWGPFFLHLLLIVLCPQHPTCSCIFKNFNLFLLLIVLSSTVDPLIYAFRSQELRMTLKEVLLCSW
T4 sequence (P41149 whole entry): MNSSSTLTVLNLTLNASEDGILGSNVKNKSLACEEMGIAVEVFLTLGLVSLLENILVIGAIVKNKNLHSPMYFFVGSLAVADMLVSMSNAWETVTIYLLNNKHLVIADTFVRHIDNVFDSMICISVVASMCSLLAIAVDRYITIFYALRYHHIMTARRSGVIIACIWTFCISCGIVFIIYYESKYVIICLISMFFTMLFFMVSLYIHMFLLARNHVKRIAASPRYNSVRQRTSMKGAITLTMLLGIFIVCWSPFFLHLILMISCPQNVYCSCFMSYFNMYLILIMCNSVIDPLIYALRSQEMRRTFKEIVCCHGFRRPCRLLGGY
T3 sequence (P33033 whole entry): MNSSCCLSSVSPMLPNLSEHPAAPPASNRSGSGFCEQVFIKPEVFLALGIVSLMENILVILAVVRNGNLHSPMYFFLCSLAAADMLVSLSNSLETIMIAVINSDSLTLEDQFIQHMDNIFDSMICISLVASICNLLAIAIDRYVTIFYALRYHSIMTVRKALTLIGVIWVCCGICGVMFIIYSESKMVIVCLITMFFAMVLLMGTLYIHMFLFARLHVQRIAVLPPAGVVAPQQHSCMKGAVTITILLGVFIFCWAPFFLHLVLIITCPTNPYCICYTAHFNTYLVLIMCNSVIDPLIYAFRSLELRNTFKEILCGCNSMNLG
T1 sequence (P56450 whole entry): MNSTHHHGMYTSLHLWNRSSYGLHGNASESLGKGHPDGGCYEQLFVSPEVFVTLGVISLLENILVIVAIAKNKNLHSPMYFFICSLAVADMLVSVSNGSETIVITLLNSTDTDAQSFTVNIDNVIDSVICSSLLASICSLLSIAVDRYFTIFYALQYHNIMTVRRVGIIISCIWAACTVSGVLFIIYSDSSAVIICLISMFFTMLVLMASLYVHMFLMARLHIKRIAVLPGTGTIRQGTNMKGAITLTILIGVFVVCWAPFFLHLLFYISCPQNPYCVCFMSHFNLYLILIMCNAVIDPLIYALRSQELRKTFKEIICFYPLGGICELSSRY

In the case of `CC(=O)N[C@@H](Cc1c[nH]c2ccccc12)C(=O)N[C@H](Cc1ccc(I)cc1)C(=O)N[C@@H](CCCNC(=N)N)C(=O)N[C@@H](Cc1c[nH]c2ccccc12)C(N)=O` [Peptide 13, Ac-Trp-(pI)DPhe-Arg-Trp-NH2] (Ac-W[dPhe(4-I)]RW-NH2), the Kb (mMC4R [1]) is reported as 0.00501 µM, the “mMC4R pharmacology class printed in Fold Diff. column (Ant, SA)” value (mMC4R [1]; [10]) is reported as “SA Ant” and the “mMC1R Fold Diff” value (mMC1R [2]; [11]) is reported as 30. The EC50 (mMC1R [2]; mMC1R EC50, agonist, HEK-293 cells stably expressing receptor, ±SEM) was 4.2 ± 1.2 µM, the Kb (mMC3R [3]) was 0.0631 µM and the “mMC3R pharmacology class printed in Fold Diff column (Ant, SA)” value (mMC3R [3]; [10]) was “Ant”. For the same compound, the “mMC4R relative percentage of stimulation at 100 μM” value (mMC4R [4]) was 40%, the EC50 (mMC5R [5]) was 10 ± 3 µM and the “mMC5R Fold Diff.” value (mMC5R [5]; [11]) was 1905. The “mMC5R fold less potent than peptide 1” value (mMC5R [5]; less potent than 1) was 1900 fold and the “effect on energy homeostasis in vivo” value (male and female mice) was “different effects on energy homeostasis in male mice compared to female mice”.

For `CC(=O)N[C@@H](Cc1c[nH]cn1)C(=O)N[C@H](Cc1ccccc1)C(=O)N[C@@H](CCCNC(=N)N)C(=O)N[C@@H](Cc1ccc2ccccc2c1)C(N)=O` [Peptide 39, Ac-His-DPhe-Arg-Nal(2’)-NH2] (Ac-H[dF]R[2Nal]-NH2), the EC50 (mMC3R [6]; ref [31]) is listed as 0.74 ± 0.16 µM, the EC50 (mMC5R [7]; ref [31]) is listed as 0.0049 ± 0.0015 µM and the EC50 (mMC4R [8]; ref [31]) is listed as 0.016 µM and 0.0158 µM. For the same compound, the EC50 (mMC1R [9]; ref [31]) was 0.0179 ± 0.006 µM and the “selectivity between the mMC1R and the mMC5R” value (mMC5R [5]; monosubstituted reference peptides, from literature EC50 values of Table 3) was ≤ 5 fold.

For “Ac-Trp-DPhe-Arg-Trp-NH2 (Ac-W[dF]RW-NH2; SMILES CC(=O)N[C@@H](Cc1c[nH]c2ccccc12)C(=O)N[C@H](Cc1ccccc1)C(=O)N[C@@H](CCCNC(=N)N)C(=O)N[C@@H](Cc1c[nH]c2ccccc12)C(N)=O) [Peptide 49]”, the EC50 (mMC3R [6]; ref [33]) is listed as 10 ± 2 µM, the EC50 (mMC5R [7]; ref [33]) is listed as 0.51 ± 0.1 µM and the EC50 (mMC4R [8]; ref [33]) is listed as 0.53 ± 0.15 µM. The EC50 (mMC1R [9]; ref [33]) was 5.4 ± 1.8 µM.

For Ac-[3Pal][dF]RW-NH2 [Peptide 50], the “mMC3R pharmacology in words” value (mMC3R [6]; ref [33]) is given as “only slight agonist activity”, the EC50 (mMC5R [7]; ref [33]) is given as 0.4 ± 0.1 µM and the EC50 (mMC4R [8]; ref [33]) is given as 0.89 ± 0.1 µM. The EC50 (mMC1R [9]; ref [33]) was 1.2 ± 0.2 µM.

For Ac-[4Pal][dF]RW-NH2 [Peptide 51], the EC50 (mMC3R [6]; ref [33]) is given as 2.3 ± 0.8 µM, the EC50 (mMC5R [7]; ref [33]) is given as 0.093 ± 0.022 µM and the EC50 (mMC4R [8]; ref [33]) is given as 0.13 ± 0.03 µM. The EC50 (mMC1R [9]; ref [33]) was 0.18 ± 0.08 µM.
